Assay results published in patent publication US9243002B2, “Tetracyclic heterocycle compounds and methods of use thereof for the treatment of hepatitis C” (priority 2013, dated 2016).
Like-named read-outs stand apart in the source and are kept apart here.

Tests used:
HCV genotype 1b replicon = assay: HCV replicon assay, genotype 1b (cell ELISA for NS3/4A); type: cell-based, hepatitis C virus
Method: (§1) Measurement of inhibition by compounds was performed using the HCV replicon system. Several different replicons encoding different HCV genotypes or mutations were used. In addition, potency measurements were made using different formats of the replicon assay, including different ways of measurements and different plating formats. See Jan M. Vrolijk et al., A replicons-based bioassay for the measurement of interferons in patients with chronic hepatitis C, 110 J. VIROLOGICAL METHODS 201 (2003); Steven S. Carroll et al., Inhibition of Hepatitis C Virus RNA Replication by 2′-Modified Nucleoside Analogs, 278 (14) J. BIOLOGICAL CHEMISTRY 11979 (2003). However, the underlying principles are common to all of these determinations, and are outlined below.
(§2) Stable neomycin phosphotransferase encoding replicons-harboring cell lines were used, so all cell lines were maintained under G418 selection prior to the assay. Potency was deteremined using a cell ELISA assay with an antibody to the replicons encoded NS3/4a protease. See Caterina Trozzi et al., In Vitro Selection and Characterization of Hepatitis C Virus Serine Protease Variants Resistant to an Active-Site Peptide Inhibitor, 77 (6) J. Virol. 3669 (2003). To initiate an assay, replicon cells were plated in the presence of a dilution series of test compound in the absence of G418. Typically, the assays were performed in a 96-well plate formate for manual operation, or a 384-well plate format for automated assay. Replicon cells and compound were incubated for 96 hours. At the end of the assay, cells were washed free of media and compound, and the cells were then lysed. RNA was quantified indirectly through detection of replicon-encoded NS3/4A protein levels, through an ELISA-based assay with an antibody specific for NS3/4A. IC50 determinations were calculated as a percentage of a DMSO control by fitting the data to a four-parameter fit function and the data obtained for genotypes 1a and 1b using this method is provided in the table below.

HCV genotype 1a replicon = assay: HCV replicon assay, genotype 1a (cell ELISA for NS3/4A); type: cell-based, hepatitis C virus
Method: as §1, §2

[1] = Hepatitis C virus, 96 h, read-out: 1b IC50 (nM), genotype 1b replicon cells, 96 hours incubation, NS3/4A ELISA
[2] = Hepatitis C virus, 96 h, read-out: 1a IC50 (nM), genotype 1a replicon cells, 96 hours incubation, NS3/4A ELISA
[3] = read-out: 1b IC50, genotype 1b replicon cells, 96 hours incubation, NS3/4A ELISA
[4] = read-out: 1a IC50, genotype 1a replicon cells, 96 hours incubation, NS3/4A ELISA

CNC(=O)c1c(-c2ccc(F)cc2)oc2cc(N(C)S(C)(=O)=O)c(-c3ccc4c(n3)-c3cc5c(F)cccc5n3C4O)cc12 (stereo not shown) [Example 87, 5-(10-fluoro-5-hydroxy-5H-pyrido[2′,3′:3,4]pyrrolo[1,2-a]indol-2-yl)-2-(4-fluorophenyl)-N-methyl-6-(N-methylmethylsulfonamido)benzofuran-3-carboxamide]
IC50 (HCV genotype 1b replicon; [1]): 7.29 nM
IC50 (HCV genotype 1a replicon; [2]): 7.69 nM

CNC(=O)c1c(-c2ccc(OC3CC3)nc2)oc2cc(N(C)S(C)(=O)=O)c(-c3ccc4c(n3)-c3cc5c(F)cccc5n3CC4)cc12 [Example 5]
IC50 (HCV genotype 1b replicon; [1]): 2.3 nM
IC50 (HCV genotype 1a replicon; [2]): 3.86 nM

CNC(=O)c1c(-c2cnc(N3CCCC3)s2)oc2cc(N(C)S(C)(=O)=O)c(-c3ccc4c(n3)-c3cc5c(F)cccc5n3CC4)cc12 [Example 22]
IC50 (HCV genotype 1b replicon; [1]): 163 nM
IC50 (HCV genotype 1a replicon; [2]): 1450 nM

CNC(=O)c1c(C2CC2)oc2cc(N(C)S(C)(=O)=O)c(-c3ccc4c(n3)-c3cc5c(F)cccc5n3CC4)cc12 [Example 16]
IC50 (HCV genotype 1b replicon; [1]): 14.6 nM
IC50 (HCV genotype 1a replicon; [2]): 27 nM

CNC(=O)c1c(-c2ccc(C(F)(F)F)cc2)oc2cc(N(C)S(C)(=O)=O)c(-c3ccc4c(n3)-c3cc5c(F)cccc5n3CC4)cc12 [Example 1, 5-(11-fluoro-5,6-dihydroindolo[1,2-h][1,7]naphthyridin-2-yl)-N-methyl-6-(N-methylmethylsulfonamido)-2-(4-(trifluoromethyl)phenyl)benzofuran-3-carboxamide]
IC50 (HCV genotype 1b replicon; genotype 1b replicon cells, 96 hours incubation, NS3/4A ELISA, read-out: 1b IC50): 4.67 nM
IC50 (HCV genotype 1a replicon; genotype 1a replicon cells, 96 hours incubation, NS3/4A ELISA, read-out: 1a IC50): 3.78 nM

CNC(=O)c1c(-n2cc(C(F)(F)F)cn2)oc2cc(N(C)S(C)(=O)=O)c(-c3ccc4c(n3)-c3cc5c(F)cccc5n3CC4)cc12 [Example 33]
IC50 (HCV genotype 1b replicon; [1]): 23.6 nM
IC50 (HCV genotype 1a replicon; [2]): 170 nM

CNC(=O)c1c(-c2cnc(C)c(F)c2)oc2cc(N(C)S(C)(=O)=O)c(-c3ccc4c(n3)-c3cc5c(F)cccc5n3CC4)cc12 [Example 14]
IC50 (HCV genotype 1b replicon; [1]): 24.3 nM
IC50 (HCV genotype 1a replicon; [2]): 26.4 nM

CNC(=O)c1c(-c2cnn3ncccc23)oc2cc(N(C)S(C)(=O)=O)c(-c3ccc4c(n3)-c3cc5c(F)cccc5n3CC4)cc12 [Example 24]
IC50 (HCV genotype 1b replicon; [1]): 18.9 nM
IC50 (HCV genotype 1a replicon; [2]): 20 nM

CNC(=O)c1c(-c2ccc(F)cc2)oc2cc(N(C)S(C)(=O)=O)c(-c3ccc4ccn5c6cccc(F)c6cc5c4n3)cc12 [Example 82, 5-(11-fluoroindolo[1,2-h][1,7]naphthyridin-2-yl)-2-(4-fluorophenyl)-N-methyl-6-(N-methylmethylsulfonamido)benzofuran-3-carboxamide]
IC50 (HCV genotype 1b replicon; [1]): 5.54 nM
IC50 (HCV genotype 1a replicon; [2]): 2.88 nM

CNC(=O)c1c(-c2ccc(F)cc2F)oc2cc(N(C)S(C)(=O)=O)c(-c3ccc4c(n3)-c3cc5c(F)cccc5n3C(CO)C4)cc12 (single isomer, unassigned) [Example 51, (S or R)-2-(2,4-difluorophenyl)-5-(11-fluoro-6-(hydroxymethyl)-5,6-dihydroindolo[1,2-h][1,7]naphthyridin-2-yl)-N-methyl-6-(N-methylmethylsulfonamido)benzofuran-3-carboxamide]
IC50 (HCV genotype 1b replicon; [1]): 3.42 nM
IC50 (HCV genotype 1a replicon; [2]): 4.49 nM

CNC(=O)c1c(-c2ccc(F)cc2F)oc2cc(N(C)S(C)(=O)=O)c(-c3ccc4c(n3)-c3cc5c(F)cccc5n3C(CN3CC(F)C3)C4)cc12 (stereo not shown) [Example 95]
IC50 (HCV genotype 1b replicon; [1]): 7.53 nM
IC50 (HCV genotype 1a replicon; [2]): 8.91 nM

CNC(=O)c1c(-c2ccc(F)cc2)oc2cc(N(C)S(C)(=O)=O)c(-c3cc4c(cn3)CC(C)n3c-4cc4c(F)cccc43)cc12 (single isomer, unassigned) [Example 42, (S or R)-5-(11-fluoro-6-methyl-5,6-dihydroindolo[2,1-a][2,6]naphthyridin-2-yl)-2-(4-fluorophenyl)-N-methyl-6-(N-methylmethylsulfonamido)benzofuran-3-carboxamide]
IC50 (HCV genotype 1b replicon; [3]): 5.47 nM
IC50 (HCV genotype 1a replicon; [4]): 3.1 nM

CNC(=O)c1c(-c2ccc(F)cc2)oc2nc(N(C)S(C)(=O)=O)c(-c3ccc4c(n3)-c3cc5c(F)cccc5n3CC4)cc12 [Example 45, 5-(11-fluoro-5,6-dihydroindolo[1,2-h][1,7]naphthyridin-2-yl)-2-(4-fluorophenyl)-N-methyl-6-(N-methylmethylsulfonamido)furo[2,3-b]pyridine-3-carboxamide]
IC50 (HCV genotype 1b replicon; [1]): 8.72 nM
IC50 (HCV genotype 1a replicon; [2]): 4.29 nM

CNC(=O)c1c(-c2ccn[nH]2)oc2cc(N(C)S(C)(=O)=O)c(-c3ccc4c(n3)-c3cc5c(F)cccc5n3CC4)cc12 [Example 25]
IC50 (HCV genotype 1b replicon; [1]): 99.4 nM
IC50 (HCV genotype 1a replicon; [2]): 287 nM

CNC(=O)c1c(-c2ccc(F)cc2)oc2cc(N(C)S(C)(=O)=O)c(-c3ccc4c(n3)-c3cc5c(F)cccc5n3C4CO)cc12 (stereo not shown) [Example 55]
IC50 (HCV genotype 1b replicon; [1]): 1.81 nM
IC50 (HCV genotype 1a replicon; [2]): 0.971 nM

CNC(=O)c1c(-c2ccc(F)cc2)oc2cc(N(C)S(C)(=O)=O)c(-c3ccc4c(n3)-c3cc5c(F)cccc5n3CC4)cc12 [Example 85, 5-(11-fluoro-5,6-dihydroindolo[1,2-h][1,7]naphthyridin-2-yl)-2-(4-fluorophenyl)-N-methyl-6-(N-methylmethylsulfonamido)benzofuran-3-carboxamide]
IC50 (HCV genotype 1b replicon; [1]): 3.29 nM
IC50 (HCV genotype 1a replicon; [2]): 2.99 nM

CNC(=O)c1c(-c2ccc(F)cc2)nn2cc(N(C)S(C)(=O)=O)c(-c3ccc4c(n3)-c3cc5c(F)cccc5n3CC4)cc12 [Example 46, 5-(11-fluoro-5,6-dihydroindolo[1,2-h][1,7]naphthyridin-2-yl)-2-(4-fluorophenyl)-N-methyl-6-(N-methylmethylsulfonamido)pyrazolo[1,5-a]pyridine-3-carboxamide]
IC50 (HCV genotype 1b replicon; [1]): 2.4 nM
IC50 (HCV genotype 1a replicon; [2]): 2.23 nM

CNC(=O)c1c(-c2ccc(F)cc2)oc2cc(N(C)S(C)(=O)=O)c(-c3ccc4c(n3)-c3cc5c(F)cccc5n3C(CS(C)(=O)=O)C4)cc12 (single isomer, unassigned) [Example 57, (S or R)-5-(11-fluoro-6-((methylsulfonyl)methyl)-5,6-dihydroindolo[1,2-h][1,7]naphthyridin-2-yl)-2-(4-fluorophenyl)-N-methyl-6-(N-methylmethylsulfonamido)benzofuran-3-carboxamide]
IC50 (HCV genotype 1b replicon; [3]): 3.39 nM
IC50 (HCV genotype 1a replicon; [4]): 8.16 nM

CNC(=O)c1c(-c2cnn(CCO)c2)oc2cc(N(C)S(C)(=O)=O)c(-c3ccc4c(n3)-c3cc5c(F)cccc5n3CC4)cc12 [Example 23]
IC50 (HCV genotype 1b replicon; [1]): 83.2 nM
IC50 (HCV genotype 1a replicon; [2]): 212 nM

CNC(=O)c1c(-c2ccc(F)cc2C)oc2cc(N(C)S(C)(=O)=O)c(-c3ccc4c(n3)-c3cc5c(F)cccc5n3CC4)cc12 [Example 10]
IC50 (HCV genotype 1b replicon; [1]): 10.7 nM
IC50 (HCV genotype 1a replicon; [2]): 9.44 nM

CNC(=O)c1c(-c2cncs2)oc2cc(N(C)S(C)(=O)=O)c(-c3ccc4c(n3)-c3cc5c(F)cccc5n3CC4)cc12 [Example 37]
IC50 (HCV genotype 1b replicon; [1]): 14.2 nM
IC50 (HCV genotype 1a replicon; [2]): 9.83 nM

CNC(=O)c1c(-c2ccc(C(C)C)nc2)oc2cc(N(C)S(C)(=O)=O)c(-c3ccc4c(n3)-c3cc5c(F)cccc5n3CC4)cc12 [Example 11]
IC50 (HCV genotype 1b replicon; [1]): 661 nM
IC50 (HCV genotype 1a replicon; [2]): 2120 nM

CNC(=O)c1c(-c2ccc(F)cc2F)oc2cc(N(C)S(C)(=O)=O)c(-c3ccc4c(n3)-c3cc5c(F)cccc5n3CC4)cc12 [Example 30, 2-(2,4-difluorophenyl)-5-(11-fluoro-5,6-dihydroindolo[1,2-h][1,7]naphthyridin-2-yl)-N-methyl-6-(N-methylmethylsulfonamido)benzofuran-3-carboxamide]
IC50 (HCV genotype 1b replicon; [1]): 3.81 nM
IC50 (HCV genotype 1a replicon; [2]): 2.49 nM

CNC(=O)c1c(-c2cnn(-c3ccccc3)c2)oc2cc(N(C)S(C)(=O)=O)c(-c3ccc4c(n3)-c3cc5c(F)cccc5n3CC4)cc12 [Example 18]
IC50 (HCV genotype 1b replicon; [1]): 296 nM
IC50 (HCV genotype 1a replicon; [2]): 5480 nM

CNC(=O)c1c(-c2ccnn2C(C)C)oc2cc(N(C)S(C)(=O)=O)c(-c3ccc4c(n3)-c3cc5c(F)cccc5n3CC4)cc12 [Example 17, 5-(11-fluoro-5,6-dihydroindolo[1,2-h][1,7]naphthyridin-2-yl)-2-(1-isopropyl-1H-pyrazol-5-yl)-N-methyl-6-(N-methylmethylsulfonamido)benzofuran-3-carboxamide]
IC50 (HCV genotype 1b replicon; [1]): 197 nM
IC50 (HCV genotype 1a replicon; [2]): 373 nM

CNC(=O)c1c(-c2ccc(F)cc2)oc2cc(N(C)S(C)(=O)=O)c(-c3ccc4c(n3)-c3c(C)c5ccccc5n3CC4)cc12 [Example 76, 2-(4-fluorophenyl)-N-methyl-5-(12-methyl-5,6-dihydroindolo[1,2-h][1,7]naphthyridin-2-yl)-6-(N-methylmethylsulfonamido)benzofuran-3-carboxamide]
IC50 (HCV genotype 1b replicon; [1]): 194 nM
IC50 (HCV genotype 1a replicon; [2]): 1000 nM
